Measured values published in publication PMC3669292, “Neuroprotective Efficacy of a New Brain-Penetrating C-Abl Inhibitor in a Murine Parkinson’s Disease Model” (PLoS ONE, 2013).

Columns and labels:
Bcr-Abl = details: preclinical studies; cited from earlier work
[1] = Brain levels of INNO-406 in C57 mice after single i.p. injection; format: in vivo; details: for Brain level of INNO-406: C57 mice
Description: For pharmacokinetic studies, INNO-406 was injected at 2.5 mg/kg/i.p. or 10 mg/kg/i.p. in C57 mice and brains were harvested 1 h, 4 h, and 24 h after a single injection. In another study, INNO-406 was injected at 2.5 mg/kg/i.p. or 10 mg/kg/i.p. in C57 mice in the presence or absence of MPTP (4×20 mg/kg/i.p. at 2 h interval) after last injection of MPTP and brains were harvested 1 h, 4 h, and 24 h after a single injection of INNO-406. Finally, brain levels of MPP+ in C57 mice were measured 1 h, 4 h, and 24 h after single injection of MPTP (60 mg/kg/i.p.) in the presence or absence of a single injection of INNO-406 (2.5 mg/kg/i.p. or 10 mg/kg/i.p.).
The concentrations of both drugs, Imatinib and INNO-406, were analyzed by a rapid HPLC separation and UV-VIS detection. Briefly, the isocratic HPLC analysis for both Imatinib and INNO-406 were achieved on a C18 Zorbax column (150×4.6 mm, 5 um) (Phenomenex, Torrance, CA) with a simple mobile phase consisting of methanol and deionized water (50∶50% v/v/) at a flow rate of 1.0 ml/min. The effluents were monitored at 223 nm and quantified using the area under the peak from standard solutions dissolved in assay II buffer (0.4 to 25 µg/ml). Assay II buffer consisted of sodium chloride (122 mM), potassium chloride (3 mM), calcium chloride (1.4 mM), magnesium sulfate (1.2 mM), sodium bicarbonate (25 mM), HEPES (10 mM), d-glucose (10 mM) and potassium phosphate (0.4 mM) at Ph of 7.4.

BBMEC monolayers = experiment: Directional permeability of drug analogues across primary BBMEC monolayers (in vitro BBB model); format: in vitro ADME, bovine; details: for Apparent Permeability Ratio A → B/B→ A: mean ± SD, n = 3
Description: (§1) The BBMEC were isolated by a modified method previously described. Briefly, the meninges were removed from the gray matter of fresh cow cerebral cortices and mechanically homogenized through a 100 μm mesh screen. Dispase II enzyme (5 mg/ml) reconstituted in MEM isolation media (MEM ([…]), HEPES (50 mM), polymyxin B (50 ug/ml), gentamicin (50 ug/ml) and amphotercin B (2.5 ug/ml) at pH 7.4) was added to the freshly homogenized cerebral cortical tissue (10 mg/g brain tissue) and MEM isolation media at […] was added (equal w/w of brain tissue). The mixture was placed in an incubated shaker for one hour (37°C, 150 rpm). Following this incubation, the supernatant was removed by centrifugation (10 min at 1570 rcf). […] The crude capillary pellet was collected and re-suspended in a collagenase/dispase (5 mg/ml) solution at a final concentration of 0.1% (v/w) and placed in an incubated shaker (37°C, 150 rpm) for one hour. […] The digested capillaries were centrifuged (10 min, 1700 rcf) to remove the enzymatic treatment and re-suspended in isolation media and pipetted into the percoll gradient tubes. The BBMEC cells were then separated by centrifugation (10 min at 1700 rcf). […] The BBMEC were plated (approximately 50,000 cells/cm^2 density) on collagen-coated, fibronectin-treated culture plates, and incubated in a humidified incubator (37°C with 5% (v/v) CO2). The cells were used after reaching confluence, typically 8-12 days. The concentrations of both drugs, Imatinib and INNO-406, were analyzed by a rapid HPLC separation and UV-VIS detection. […] The effluents were monitored at 223 nm and quantified using the area under the peak from standard solutions dissolved in assay II buffer (0.4 to 25 μg/ml). Assay II buffer consisted of sodium chloride (122 mM), potassium chloride (3 mM), calcium chloride (1.4 mM), magnesium sulfate (1.2 mM), sodium bicarbonate (25 mM), HEPES (10 mM), d-glucose (10 mM) and potassium phosphate (0.4 mM) at Ph of 7.4. The directional comparison of drug analogues transported in primary BBMEC monolayers was determined. These methods have been previously described, [21]. Briefly, the freshly isolated BBMEC were plated in triplicates (50,000 cells/cm^2 seeding density) on collagen-coated, fibronectin-treated polycarbonate membrane inserts, and cultured until confluence (12 mm; 0.4 μm pore size, Costar TranswellTM 12-well, Cambridge, MA). Complete culture media from confluent BBMEC monolayers was replaced 24-hours prior to the start of the experiment. The confluent monolayers were mounted in side-by-side diffusion chambers ([…]) either the apical or the basolateral sides were supplied with fresh assay II buffer with drug (donor chamber, 10 μM). Samples (100 μl) were removed from the […] compartment at various time points (0-90 min) and replaced with fresh buffer. The concentration of drug in the samples was determined spectrophotometrically by HPLC methodology reported above ([…]). The directional transport was expressed as the percent of the respective drug across the BBMEC monolayers over time (Mean ± SD, n = 3).

[2] = as above; format: in vitro ADME, bovine; details: bovine, pH 7.4, donor 10 µM, 0–90 min, mean ± SD, n = 3; for Papp A→B at 10 µM: apical-to-basolateral, read-out: Apparent Permeability Coefficient A → B; for Papp B→A at 10 µM: basolateral-to-apical, read-out: Apparent Permeability Coefficient B → A
Description: as §1

[3] = system: MPTP-induced dopaminergic damage in C57BL/6 mice; experiment: MPTP mouse model of PD: TH+ neuron stereology, striatal TH optical density, striatal dopamine; format: in vivo
[4] = system: c-Abl activation, parkin tyrosine phosphorylation, AIMP2 accumulation; experiment: Immunoprecipitation/immunoblot of striatal lysates of MPTP-treated mice; format: in vivo, C57BL/6 mice; details: 10 mg/kg i.p. daily one week before and one week after MPTP; vs MPTP alone
SH-SY5Y cells = experiment: Lactate dehydrogenase cytotoxicity assay, MPP+-treated cells; format: cell-based; details: 6 h pretreatment with 0.5 or 1.0 µM; MPP+ 500 µM; 24 h after exposure
Description: The release of lactate dehydrogenase for cytotoxicity was measured by LDH assay kit (Roche#11644793001). A 100 µL of the supernatant from treated cells was transferred to new 96-well plates. The plates were incubated for 30 min at room temperature on orbital shaker. A colorimetric absorbance was recorded at 490 nm with a reference wavelength of 650 nm using a micro plate reader for colorimetric detection (BioTek, USA). Each experiment was done in triplicate. Cytotoxicity is expressed in terms of percent relative to the basal lactate dehydrogenase release by untreated control cells where controls cells serve as 100 percent.
Figure 4 INNO-406 prevents dopaminergic depletion and c-Abl mediated parkin phosphorylation in mice striatum. (A) INNO-406 prevents MPTP-induced depletion of striatal dopamine and its metabolites DOPAC and HVA in adult male C57BL/J6 mice. Animals received INNO-406 (10 mg/kg, i.p.) as a single daily injection for 7 days before MPTP injection. […] The optical density quantification data as normalized amounts is presented. * Considered statistically significant from control (p<0.05). ** Considered statistically significant from MPTP (p<0.05). (C) Cytotoxicity plotted as a percentage of control as measured by LDH in SH-SY5Y cells treated with MPP^+ (500 µM). […] Differences among means were analyzed using one-way analysis of variance (ANOVA). […]

[5] = cited from earlier work
[6] = INNO-406 10 mg/kg i.p. without MPTP

Cc1ccc(NC(=O)c2ccc(CN3CC[C@H](N(C)C)C3)c(C(F)(F)F)c2)cc1Nc1nccc(-c2cncnc2)n1 [INNO-406]
Potency relative to Imatinib in vivo (Bcr-Abl): ≥ 10 fold | Brain level of INNO-406 ([1]; 1 h after single injection of 10 mg/kg i.p.): 50 ng | Brain level of INNO-406 ([1]; 4 h after single injection of 10 mg/kg i.p.): 80 ng | Brain level of INNO-406 ([1]; 24 h after single injection of 10 mg/kg i.p.): 65 ng | Effect of multiple MPTP injections on brain levels of INNO-406 ([1]; MPTP 4×20 mg/kg i.p. at 2 h interval, INNO-406 2.5 or 10 mg/kg i.p., 1, 4, 24 h): not altered | Enhancement of apical-to-basolateral transport across BBMEC monolayers compared to Imatinib (BBMEC monolayers; apical-to-basolateral, vs Imatinib): approximately 7.5 fold | Apparent Permeability Ratio A → B/B→ A (BBMEC monolayers): 1.00±0.119 | Papp A→B at 10 µM [2]: 98 ± 6.74 ×10⁻⁶ cm/s | Papp B→A at 10 µM [2]: 94.5 ± 10.1 ×10⁻⁶ cm/s | Loss of TH staining intensity in striatum in MPTP mice that also received INNO-406 ([3]; 10 mg/kg i.p. daily one week before and after MPTP, relative to controls, MPTP alone 70% loss): 35% | Prevention (decrease) of loss of dopamine (and DOPAC, HVA) in the striatum ([3]; 10 mg/kg i.p. daily one week before and one week after MPTP 4×20 mg/kg i.p. every 2 h): 45% | MPTP-induced loss of TH+ neurons in the SNpc in mice also treated with INNO-406 ([3]; 10 mg/kg i.p. daily one week before and one week after MPTP 4×20 mg/kg, vs saline, MPTP alone 60–65% loss): 15–20% | Organization and intensity of TH-immunoreactive neurons in SNpc, INNO-406 alone vs saline [3, 6]: essentially similar | TH immunoreactivity within the striatum, INNO-406 alone vs control [3, 6]: similar | Striatal level of AIMP2 [4]: significant decreases | Striatal level of phospho-c-Abl [4]: significant decreases | Striatal level of phospho-parkin [4]: significant decreases | MPP+-induced cytotoxicity (LDH release) (SH-SY5Y cells): prevented | Entry into brain [5]: significantly enter brain

Cc1ccc(NC(=O)c2ccc(CN3CCN(C)CC3)cc2)cc1Nc1nccc(-c2cccnc2)n1 [Imatinib]
Apparent Permeability Ratio A → B/B→ A (BBMEC monolayers): 0.20±0.001 | Papp A→B at 10 µM [2]: 12.96 ± 0.07 ×10⁻⁶ cm/s | Papp B→A at 10 µM [2]: 63.86 ± 0.23 ×10⁻⁶ cm/s | Brain bioavailability [5]: limited brain bioavailability | Capacity to cross blood-brain barrier [5]: minimal capacity to cross blood-brain barrier
